Measured values published in US9060541B2, “Sterilizer for foods” (Kawakami Co., Ltd., priority 2009, dated 2015).

Key:
[1] = tested on: Escherichia coli O-157 (enterohemorrhagic Escherichia coli O157: H7 EDL 933); test: Cutting board sterilization test; assay type: cell-based; conditions: 0.7 ml sprayed on contaminated cutting board; swab sample 1 minute later; cultured 24 hours at 37° C.
[2] = tested on: Campylobacter jejuni subsp. Jejuni JCM2013; test: Sterilization test on beef (yukhoe; raw beef); assay type: cell-based; conditions: sprayed and mixed into inoculated beef; 24 hours after storage at 10° C.
general viable bacteria = test: Hand sterilization test (Sterilization Test 2); conditions: 1.4 ml sprayed on washed and dried hand; swab sample 1 minute later; cultured 48 hours at 37° C.
[3] = tested on: Staphylococcus aureus (209P); test: Sterilization effect determination test (Fujimoto's modified method of the Kelsey-Sykes method); assay type: cell-based; set-up: key: D: There is no sterilization effect.; C: There is a sterilization effect in step (1) but no sterilization effect in step (2).; B: There is a sterilization effect up to step (2) but no sterilization effect in step (3).; A: There is a sterilization effect up to step (3); conditions: water remainder
Escherichia coli (NIHJ) = test: as above; assay type: cell-based; set-up: key: D: There is no sterilization effect.; C: There is a sterilization effect in step (1) but no sterilization effect in step (2).; B: There is a sterilization effect up to step (2) but no sterilization effect in step (3).; A: There is a sterilization effect up to step (3); conditions: water remainder
[4] = Table 2, compositions of calcinated calcium and ethanol, 20° C., steps (1)-(3)
[5] = Table 1, compositions of calcinated calcium and ethanol, 20° C., steps (1)-(3)
[6] = Table 4, compositions with sodium lactate blended
[7] = Table 3, compositions with sodium lactate blended

Structure (SMILES)	Sterilization effect [3, 4]	Sterilization effect (Escherichia coli (NIHJ); [5])	Sterilization effect [3, 6]	Sterilization effect (Escherichia coli (NIHJ); [7])	further results
CCO [70% ethanol, ethanol]	–	–	–	–	Cutting board microbe eradication results (general viable bacteria count) [1]: 2.8 × 10^4; viable bacteria count [2]: 10^5 to 10^6; Hand sterilization results (general viable bacteria count) (general viable bacteria): 6.2 × 10^3
CCO [Ethanol 5 wt %, ethanol]	D	D	–	–	–
CCO [Ethanol 10 wt %, ethanol]	D	D	–	–	–
CCO [Ethanol 20 wt %, ethanol]	D	D	–	–	–
CCO [Ethanol 50 wt %, ethanol]	D	B	–	–	–
CCO [Ethanol 75 wt %, ethanol]	B	B	–	–	–
CCO [Ethanol 100 wt %, ethanol]	A	A	–	–	–
CC(O)C(=O)[O-].[Na+] (stereo not shown) [Sodium lactate 1.5 wt %, sodium lactate]	–	–	D	D	–
CC(O)C(=O)[O-].[Na+] (stereo not shown) [Sodium lactate 3 wt %, sodium lactate]	–	–	D	D	–
CC(O)C(=O)[O-].[Na+] (stereo not shown) [Sodium lactate 4.5 wt %, sodium lactate]	–	–	D	D	–
CC(O)C(=O)[O-].[Na+] (stereo not shown) [Sodium lactate 6 wt %, sodium lactate]	–	–	D	D	–
CC(O)C(=O)[O-].[Na+] (stereo not shown) [Sodium lactate 9 wt %, sodium lactate]	–	–	D	no sterilization effect whatsoever and D	–
